# Laboratory results taken from patent US20030195242A1, “Use of Cox-2 inhibitors to prevent recurrences of herpesvirus infections” (priority 2002, published 2003).
# Experiments:
# Type in all cases: in vivo, BALB/c mice
# McKrae strain of HSV-1 [1] = assay: Heat-stress reactivation of latent HSV-1 in mice: infectious virus on the ocular surface (celecoxib); details: not stressed
# Description: (§1) To test the effect of a selective COX-2 inhibitor on recurrence of HSV, female BALB/c mice (The Jackson Laboratory, Bar Harbor, Me.) at 4 weeks of age were used. The strain of HSV and the method of propagation were as described in Example 1.
# (§2) The mice were infected by the topical ocular route, and the establishment of a corneal infection was documented by slit lamp examination and ocular swabs on day 3 after infection. Only animals which were successfully infected were retained for use in these experiments. Thirty days after infection, groups of 15 latently infected and 15 uninfected mice were treated with the COX 2 inhibitor, celecoxib (G. D. Searle & Co., Skokie, Ill.). The dose of celecoxib that would inhibit viral reactivation was determined in a preliminary experiment in which groups of mice were injected intraperitoneally with 0.1, 0.5, 1.0, and 5.0 mg of celecoxib four times daily. The mice were treated one day before heat stress and the day of the heat stress. […] This dosage was used in all subsequent experiments.
# (§3) Two days prior to hyperthermic stress, uninfected mice and latently infected mice were treated four times daily with celecoxib at a concentration of 0.5 mg per treatment. […] Units of Infectious virus were recorded as units of cytopathic effect over a period of seven days. […] The units of cytopathic effect were recorded over a seven day incubation period. […]
# McKrae strain of HSV-1 [2] = assay: Heat-stress reactivation of latent HSV-1 in mice: infectious virus in the trigeminal ganglia (celecoxib); details: not stressed
# Description: as §1, §2, §3
# McKrae strain of HSV-1 [3] = assay: Preliminary dose-finding experiment for inhibition of viral reactivation by celecoxib; details: IP four times daily; 0.1, 0.5, 1.0 and 5.0 mg tested; one day before and day of heat stress
# Description: as §2
# McKrae strain of HSV-1 [4] = assay: Heat-stress reactivation of latent HSV-1 in mice: infectious virus on ocular surface swabs (ASA)
# Description: The McKrae strain of HSV-1 was propagated in Vero cells (ATCC No. CCL-81, American Type Culture Collection, Manassass, Va.), titered by viral plaque assay, and stored at −70° C. until used to infect animals.
# (§4) Ocular swabs were immersed in 0.2 ml of complete tissue culture medium consisting of RPMI-1640, 10% fetal bovine serum (FBS), and an antibiotic-antimycotic mixture (Life Technologies, Grand Island, N.Y.). The swabs in culture medium were stored at 4° C. until testing by plaque assay. The determination of infectious virus in the cornea and in the trigeminal ganglia of animals were performed in a similar manner. Pairs of corneas and ganglia from individual mice were placed in separate tubes in 0.2 ml of complete medium, homogenized, clarified by centrifugation at 14,000×g for 5 minutes and the supernatant tested for infectious virus on Vero cells.
# (§5) Male BALB/c strain mice (The Jackson Laboratory, Bar Harbor, Me.) were infected at 5 weeks of age by topical application of 5×10^5 plaque forming units of the McKrae strain HSV-1 following superficial scratching of the cornea. Documentation of the success of viral infection was determined by culturing ocular swabs taken on days 3 and 5 after infection. Animals without infectious virus on both days 3 and 5 in both eyes were excluded from use in these experiments. Thirty days after infection the eyes were swabbed to establish that infectious virus was no longer present on the ocular surface. Groups of uninfected age and sex matched mice were used as control animals in this study.
# (§6) To test the effect of acetylsalicylic acid (ASA) on reactivation of HSV induced by heat stress, two sets of experiments were performed. In one set, groups of mice with latent HSV were immersed in 43° C. water up to their necks for 10 minutes. Following the hyperthermic stress, the animals were dried and given an intraperitoneal (IP) injection of 0.1 mg of ASA (Sigma Chemical Co., St. Louis, Mo.) suspended in 0.1 ml saline. At 8 and 16 hours after hyperthermia, the animals were again treated with ASA. Control mice were given IP injections of saline on the same schedule. At 24 hr after hyperthermic stress, the eyes were swabbed, the mice were sacrificed, and the corneas and trigeminal ganglia analyzed for infectious virus and viral DNA.
# (§7) In a second experiment, groups of mice were treated IP for 3 days prior to hyperthermic stress at 8 hr intervals on each of the 3 days. The animals were then heat stressed, treated immediately after stress with ASA, and treated at 8 and 16 hr after hyperthermic stress. Control mice were given IP injections of saline on the same schedule. Two additional groups of mice were prophylactically treated by oral administration of 0.1 mg ASA or saline on the same dose schedule. In each experiment, animals were subdivided into those which were hyperthermically stressed and those which were not stressed. As above, the eyes of these animals were swabbed at 24 hr after stress and then sacrificed for analysis of infectious virus and viral DNA in their corneas and trigeminal ganglia.
# (§8) Control mice for each of these experiments included animals which were latent for HSV-1 but which were not heat stressed. Subsets of this control group included animals placebo-treated and animals treated with ASA. Two additional control groups of animals were those which were not latent for HSV-1, but which were either treated with placebo or ASA on the schedules outlined above.
# McKrae strain of HSV-1 [5] = assay: Heat-stress reactivation of latent HSV-1 in mice: infectious virus in cornea and trigeminal ganglia homogenates (ASA)
# Description: as §4, §5, §6, §7, §8
# McKrae strain of HSV-1 [6] = assay: Quantitation of viral DNA by PCR in cornea and trigeminal ganglion of latently infected mice (ASA); details: pooled from six mice
# Description: Quantitation of viral DNA in tissue homogenates was made using the polymerase chain reaction (PCR), as previously reported. See B. M. Gebhardt et al., “9-(4-hydroxybutyl)-N^2-phenylguanine (HBPG), a thymidine kinase inhibitor, suppresses herpes virus reactivation in mice,” Antiviral Res., vol. 30, pp. 87-94 (1996); and J. M. Hill et al., “Quantitative analysis of polymerase chain reaction products by dot blot,” Analyt. Biochem., vol. 235, pp. 44-48 (1996). In brief, the procedure involves comparing DNA extracted from experimental and control tissue samples containing viral DNA, and performing serial dilutions with DNA from homologous tissue homogenates of uninfected animals. Using a log dilution series and previously determined quantities of viral DNA, it is possible to obtain a series of curves which permit the sensitive and reproducible determination of viral DNA in experimental samples. The sensitivity of this procedure permits the determination of differences of 100 viral genome equivalents per sample. In each experimental series, standard curves were conducted along with the analyses of the tissue homogenates from experimental (drug treated) and control (placebo treated) mice.
# as §6, §7
# [7] = 0.5 mg celecoxib four times daily IP for two days
# [8] = 0.5 mg celecoxib four times daily orally for two days
# [9] = Experiment 1, heat stressed, ASA 0.1 mg IP after stress and at 8 and 16 h, swabs 24 hrs after heat stress
# [10] = Experiment 1, latent mice not stressed, ASA-treated
# [11] = Experiment 2, heat stressed, ASA 0.1 mg IP after stress and at 8 and 16 h, swabs 24 hrs after heat stress
# [12] = Experiment 2, latent mice not stressed, ASA-treated
# [13] = Experiment 3, heat stressed, ASA 0.1 mg IP after stress and at 8 and 16 h, swabs 24 hrs after heat stress
# [14] = Experiment 3, latent mice not stressed, ASA-treated
# [15] = Cornea, ASA from time of hyperthermic stress, 24 h after stress
# [16] = Prophylactic ASA IP, 3 days prior to stress, cornea, 24 hrs after stress
# [17] = Prophylactic ASA IP, 3 days prior to stress, trigeminal ganglia, 24 hrs after stress
# [18] = Prophylactic ASA oral gavage 0.1 mg, 3 days prior to stress, cornea, 24 hrs after stress
# [19] = Prophylactic ASA oral gavage 0.1 mg, 3 days prior to stress, trigeminal ganglia, 24 hrs after stress
# [20] = Trigeminal ganglia, ASA from time of hyperthermic stress, 24 h after stress
compound,measurement,setting,value
Cc1ccc(-c2cc(C(F)(F)F)nn2-c2ccc(S(N)(=O)=O)cc2)cc1 [celecoxib],Infectious Virus on the Ocular Surface (mice positive/total),McKrae strain of HSV-1 [1]; [7],0/12
same,Infectious Virus on the Ocular Surface (mice positive/total),McKrae strain of HSV-1 [1]; [8],0/14
same,Infectious Virus in the Trigeminal Ganglia (mice positive/total),McKrae strain of HSV-1 [2]; [7],0/12
same,Infectious Virus in the Trigeminal Ganglia (mice positive/total),McKrae strain of HSV-1 [2]; [8],0/10
same,Most effective dose in preventing viral recurrence,McKrae strain of HSV-1 [3],0.5 mg
"CC(=O)Oc1ccccc1C(=O)O [ASA, acetylsalicylic acid]",Levels of infectious virus in ocular tear film compared to placebo-treated mice,"McKrae strain of HSV-1 [4]; ASA IP or orally for three days prior to hyperthermic stimulus, data not shown",significantly lower
same,"Infectious Virus (no. positive/total), ocular surface swabs",McKrae strain of HSV-1 [4]; [9],2/12
same,Percent of ocular swab cultures which contained virus,McKrae strain of HSV-1 [4]; [9],(17%)
same,"Infectious Virus (no. positive/total), ocular surface swabs",McKrae strain of HSV-1 [4]; [10],0/10
same,Percent of ocular swab cultures which contained virus,McKrae strain of HSV-1 [4]; [10],(0%)
same,"Infectious Virus (no. positive/total), ocular surface swabs",McKrae strain of HSV-1 [4]; [11],3/12
same,Percent of ocular swab cultures which contained virus,McKrae strain of HSV-1 [4]; [11],(25%)
same,"Infectious Virus (no. positive/total), ocular surface swabs",McKrae strain of HSV-1 [4]; [12],0/8
same,Percent of ocular swab cultures which contained virus,McKrae strain of HSV-1 [4]; [12],(0%)
same,"Infectious Virus (no. positive/total), ocular surface swabs",McKrae strain of HSV-1 [4]; [13],3/12
same,Percent of ocular swab cultures which contained virus,McKrae strain of HSV-1 [4]; [13],(25%)
same,"Infectious Virus (no. positive/total), ocular surface swabs",McKrae strain of HSV-1 [4]; [14],0/10
same,Percent of ocular swab cultures which contained virus,McKrae strain of HSV-1 [4]; [14],(0%)
same,"Infectious Virus (no. positive/total), cornea homogenates",McKrae strain of HSV-1 [5]; [15],5/36
same,Percent of cornea homogenate cultures which contained virus,McKrae strain of HSV-1 [5]; [15],(14%)
same,"Infectious Virus (no. positive/total), cornea homogenates",McKrae strain of HSV-1 [5]; [16],2/10
same,Percent of cornea homogenate cultures which contained virus,McKrae strain of HSV-1 [5]; [16],20%
same,"Infectious Virus (no. positive/total), trigeminal ganglia homogenates",McKrae strain of HSV-1 [5]; [17],3/10
same,Percent of trigeminal ganglia homogenate cultures which contained virus,McKrae strain of HSV-1 [5]; [17],30%
same,"Infectious Virus (no. positive/total), cornea homogenates",McKrae strain of HSV-1 [5]; [18],2/14
same,Percent of cornea homogenate cultures which contained virus,McKrae strain of HSV-1 [5]; [18],14%
same,"Infectious Virus (no. positive/total), trigeminal ganglia homogenates",McKrae strain of HSV-1 [5]; [19],4/14
same,Percent of trigeminal ganglia homogenate cultures which contained virus,McKrae strain of HSV-1 [5]; [19],29%
same,"Infectious Virus (no. positive/total), trigeminal ganglia homogenates",McKrae strain of HSV-1 [5]; [20],8/36
same,Percent of trigeminal ganglia homogenate cultures which contained virus,McKrae strain of HSV-1 [5]; [20],(22%)
same,Viral DNA (genome equivalents),"McKrae strain of HSV-1 [6]; ASA prophylaxis prior to heat stress, heat stressed, TG",4.9 × 10^4 genome equivalents
same,Viral DNA (genome equivalents),"McKrae strain of HSV-1 [6]; ASA prophylaxis prior to heat stress, heat stressed, cornea",0.4 × 10^4 genome equivalents
same,Viral DNA (genome equivalents),"McKrae strain of HSV-1 [6]; ASA prophylaxis schedule, not stressed, TG",2.3 × 10^2 genome equivalents
same,Viral DNA (genome equivalents),"McKrae strain of HSV-1 [6]; ASA prophylaxis schedule, not stressed, cornea",<1 × 10^2 genome equivalents
same,Viral DNA (genome equivalents),"McKrae strain of HSV-1 [6]; Heat stressed, TG, ASA from time of stress",2.1 × 10^4 genome equivalents
same,Viral DNA (genome equivalents),"McKrae strain of HSV-1 [6]; Heat stressed, cornea, ASA from time of stress",0.9 × 10^3 genome equivalents
same,Viral DNA (genome equivalents),"McKrae strain of HSV-1 [6]; Not stressed, TG, ASA-treated",1.5 × 10^2 genome equivalents
same,Viral DNA (genome equivalents),"McKrae strain of HSV-1 [6]; Not stressed, cornea, ASA-treated",<1 × 10^2 genome equivalents
